Where only a bound is given, the exact number is not on record here.

Results on 14 compounds are retold here after BindingDB's records for doi:10.1111/cbdd.12902 (Shahid Bahonar University of Kerman, 2017).

For one test, the target named is Acetylcholinesterase (Electrophorus electricus, UniProt O42275). Nature of the test: Cholinesterases Inhibition Assay. Here is the method:
(§1) The stock solutions of the target compounds were prepared in a mixture of DMSO (1 ml) and ethanol (9 ml) and diluted with 0.1 MKH2PO4/K2HPO4 buffer (pH 8.0) to obtain final concentrations. […] of substrate (acetylthiocholine iodide 0.075 m) was added to the test solution to obtain final concentration of […]. All experiments were performed based on the previously described method.[Nadri et al., Bioorg. […] Spectrophotometric measurements were performed on a UV Unico double-beam spectrophotometer. The same method was also taken for BuChE inhibition assay.

Test [1] addresses Carboxylic ester hydrolase (Equus caballus, UniProt Q9N1N9). Description: Cholinesterases Inhibition Assay. On the procedure:
as §1

Acetylcholinesterase, sequence (O42275 whole entry): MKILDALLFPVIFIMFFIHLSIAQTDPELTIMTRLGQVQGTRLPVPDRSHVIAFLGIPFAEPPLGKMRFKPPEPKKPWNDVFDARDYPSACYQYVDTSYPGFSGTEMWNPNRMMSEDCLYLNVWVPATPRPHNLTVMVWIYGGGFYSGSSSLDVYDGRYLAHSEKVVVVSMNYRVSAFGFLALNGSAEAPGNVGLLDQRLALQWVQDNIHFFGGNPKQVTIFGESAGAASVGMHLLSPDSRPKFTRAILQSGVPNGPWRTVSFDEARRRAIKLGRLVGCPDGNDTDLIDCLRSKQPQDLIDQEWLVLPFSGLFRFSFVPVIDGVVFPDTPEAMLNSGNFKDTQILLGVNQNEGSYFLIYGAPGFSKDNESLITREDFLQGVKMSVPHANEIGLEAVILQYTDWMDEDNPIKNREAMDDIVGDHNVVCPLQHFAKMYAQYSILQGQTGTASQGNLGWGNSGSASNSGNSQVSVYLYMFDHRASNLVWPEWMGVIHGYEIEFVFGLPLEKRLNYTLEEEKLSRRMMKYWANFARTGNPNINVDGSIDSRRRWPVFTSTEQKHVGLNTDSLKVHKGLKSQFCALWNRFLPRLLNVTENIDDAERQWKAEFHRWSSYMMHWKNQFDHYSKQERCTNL
Carboxylic ester hydrolase, sequence (Q9N1N9 whole entry): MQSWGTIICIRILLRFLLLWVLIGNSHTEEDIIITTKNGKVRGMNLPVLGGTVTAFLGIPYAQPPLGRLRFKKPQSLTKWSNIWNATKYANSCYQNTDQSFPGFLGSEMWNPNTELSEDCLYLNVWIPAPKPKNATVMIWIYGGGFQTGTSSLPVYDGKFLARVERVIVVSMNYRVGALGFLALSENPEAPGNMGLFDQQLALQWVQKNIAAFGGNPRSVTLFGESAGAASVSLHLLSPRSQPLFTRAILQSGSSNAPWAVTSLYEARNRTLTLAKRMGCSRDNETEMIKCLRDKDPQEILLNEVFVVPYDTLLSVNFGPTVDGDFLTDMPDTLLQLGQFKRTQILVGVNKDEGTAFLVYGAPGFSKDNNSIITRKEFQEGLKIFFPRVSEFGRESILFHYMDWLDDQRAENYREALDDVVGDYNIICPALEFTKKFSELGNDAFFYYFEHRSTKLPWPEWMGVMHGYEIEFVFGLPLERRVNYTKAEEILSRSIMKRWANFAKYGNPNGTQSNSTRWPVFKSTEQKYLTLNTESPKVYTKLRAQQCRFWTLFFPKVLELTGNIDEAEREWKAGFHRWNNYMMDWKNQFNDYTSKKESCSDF

As usually defined, the IC50 is the concentration that gives 50% inhibition. High values mean weaker potency in that assay, low ones greater potency in that assay. For `c1ccc(CN2CCN(Cc3ccc(-c4nc5ccccc5o4)cc3)CC2)cc1` [2-(4-((4-Benzylpiperazin-1-yl)methyl)phenyl)benzo[d]oxazole (6i)], the IC50 (against Acetylcholinesterase; in test [1]) was above 100 µM throughout.
As for `c1ccc(CC2CCN(Cc3ccc(-c4nc5ccccc5o4)cc3)CC2)cc1` [2-(4-((4-Benzylpiperidin-1-yl)methyl)phenyl)benzo[d]oxazole (6b)], the IC50 (on Acetylcholinesterase; in test [1]) was above 100 µM each time.
`CCN1CCN(Cc2ccc(-c3nc4ccccc4o3)cc2)CC1` [2-(4-((4-Ethylpiperazin-1-yl)methyl)phenyl)benzo[d]oxazole (6g)]: the IC50 is 38.2 µM at Acetylcholinesterase and above 100 µM in test [1].
Turning to `CN1CCN(Cc2ccc(-c3nc4ccccc4o3)cc2)CC1` [2-(4-((4-Methylpiperazin-1-yl)methyl)phenyl)benzo[d]oxazole (6f)], the IC50 was 62.2 µM on Acetylcholinesterase and above 100 µM in test [1].
Regarding `c1ccc(N2CCN(Cc3ccc(-c4nc5ccccc5o4)cc3)CC2)cc1` [2-(4-((4-Phenylpiperazine-1-yl)methyl)phenyl)benzo[d]oxazole (6h)], the IC50 (on Acetylcholinesterase; in test [1]) was above 100 µM in each case.
As for `c1ccc2oc(-c3ccc(CN4CCNCC4)cc3)nc2c1` [2-(4-((Piperazin-1-yl)methyl)phenyl)benzo[d]oxazole (6e)], the IC50 came to 3.45 µM against Acetylcholinesterase and 21.5 µM in test [1].
Turning to `c1ccc2oc(-c3ccc(CN4CCCCC4)cc3)nc2c1` [2-(4-((Piperidin-1-yl)methyl)phenyl)benzo[d]oxazole (6a)], the IC50 at Acetylcholinesterase is 1.03 µM; in test [1], 6.6 µM.
The like results for `c1ccc2oc(-c3ccc(CN4CCCC4)cc3)nc2c1` [2-(4-((Pyrrolidin-1-yl)methyl)phenyl)benzo[d]oxazole (6j)] were, in that order, 1.35 µM and 8.1 µM.
The like results for `c1ccc2oc(-c3ccc(CN4CCOCC4)cc3)nc2c1` [2-(4-(Morpholinomethyl)phenyl)benzo[d]oxazole (6c)] were, in that order, 20.1 µM and above 100 µM.
The like results for `c1ccc2oc(-c3ccc(CN4CCSCC4)cc3)nc2c1` [2-(4-(Thiomorpholinomethyl)phenyl)benzo[d]oxazole (6d)] were, in that order, 2.55 µM and 16.9 µM.
Take `CN(Cc1ccccc1)Cc1ccc(-c2nc3ccccc3o2)cc1` [(4-(Benzo[d]oxazol-2-yl)phenyl)-N-benzyl-N-methylmethanamine (6l)]: the IC50 at Acetylcholinesterase is 30.8 µM; in test [1] it was above 100 µM.
In the same order, the values of `c1ccc(CNCc2ccc(-c3nc4ccccc4o3)cc2)cc1` [(4-(Benzo[d]oxazol-2-yl)phenyl)-Nbenzylmethylamine (6k)] are 25.4 µM and above 100 µM.
Consider `c1ccc(CN2CCC(NCc3ccc(-c4nc5ccccc5o4)cc3)CC2)cc1` [N-((4-(benzo[d]oxazol-2-yl)phenyl)methyl)-1-benzylpiperidin-4-amine (6n)], for which the figures for the 50% inhibitory concentration (IC50) (at Acetylcholinesterase; in test [1]) were 7.76 µM and 50.1 µM, respectively.
Turning to `CCN(Cc1ccccc1)Cc1ccc(-c2nc3ccccc3o2)cc1` [N-((4-(benzo[d]oxazol-2-yl)phenyl)methyl)-N-benzylethanamine (6m)], the IC50 on Acetylcholinesterase was 56.4 µM; in test [1], above 100 µM.
